The values that follow come from patent publication EP4810499A1, “TREATMENT OF BEHÇET'S DISEASE” (Ganzhou Hemay Pharmaceutical, Co., Ltd, priority 2023, dated 2025).

For the series, the system named is healthy Chinese subjects. The experiment in a line: Phase I clinical trial, multiple oral administrations (Example 6). It counts as in vivo, human. Conditions: 15 mg BID, 30 mg BID, 60 mg BID and 75 mg BID, 36 healthy Chinese subjects. How it is done: A Phase I clinical trial enrolling a total of 36 healthy Chinese subjects was conducted, with multiple oral administrations of the compound of Example 2 at doses of 15 mg BID, 30 mg BID, 60 mg BID and 75 mg BID, and placebo, respectively.

Structures are written as SMILES.

Turning to `CCOc1cc([C@@H](CS(C)(=O)=O)N2C(=O)c3csc(NC(C)=O)c3C2=O)ccc1OC` [Example 2, (S)-N-[5-[1-(3-ethoxy-4-methoxyphenyl)-2-(methylsulfonyl)ethyl]-4,6-dioxo-5,6-dihydro-4H-thieno[3,4-c]pyrrol-1-yl]acetamide], the safety and tolerability entry was “favorable safety and good tolerability”.
